Key:
NIH-3T3 cells = assay: Intracellular H2O2-eliminating activity (CM-H2DCF-DA fluorescence); type: cell-based; conditions: Mus musculus, NIH3T3, glucose oxidase, concentration at 50% reduction of intracellular H2O2
Experimental: The activity of test compounds in present invention to eliminate intracellular H2O2 was measured as follows. NIH-3T3 cells (ATCC) were seeded in a 35-mm culture dish at 2×10^5 cells/well. After culture for 24 hours, cells were serum-starved with phenol red free-basal DMEM containing 0.5% FBS for 6 h. Starved NIH 3T3 cells were pretreated with compounds diluted with phenol red free-basal DMEM at concentrations ([…]) for 30 min, followed by treatment with 20 mU of glucose oxidase (Gox) for 30 min. A reactive oxygen species-sensitive fluorescence dye, carboxymethyl-dichlorofluorescein-diacetate (CM-H2DCF-DA), which was prepared in 1 mM DMSO stock and diluted 500 times in phenol red free-basal DMEM, was added to the cells and incubated for 5 min. Then, cells were quickly rinsed with basal medium. Images were taken at excitation 497 nm/emission 518 nm settings using a fluorescence microscope. Three images at 10× magnification per sample were obtained, and fluorescence intensities from 30 or more individual cells per image were averaged.
The intracellular H2O2-eliminating activity of test compounds in present invention was measured using a live-cell imaging fluorescence probe (CM-HaDCF-DA). H2O2-eliminating activity was measured depending on ascending concentrations of the test compound and expressed as the percent of activity compared to the untreated control group. EC50 represents the concentration of test compound at 50% reduction of intracellular H2O2.

[1] = system: Tyr 857 phosphorylation of PDGF receptor-β (PDGFRβ) in HASMC; assay: Immunoblot of PDGF-mediated signaling in PrxII knock-down HASMC; type: cell-based, human; conditions: for Effect on phosphorylation of Tyr 857 on PDGFR: HASMC depleted of PrxII expression, FIG. 2
Summary of the method: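 HASMC and PASMC with PrxII knocked down by siRNA were treated with test compounds and PDGF-stimulated. Lysates in Hepes pH 7.0/Triton X-100 buffer with phosphatase and protease inhibitors were immunoblotted with anti-phospho-Tyr 857 PDGFRβ antibody. Membranes were stripped and reprobed.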

[2] = system: Tyr 1175 phosphorylation of VEGF receptor-2 (VEGFR2) in HAEC; assay: Immunoblot of VEGF-mediated signaling in PrxII knock-down HAEC; type: cell-based, human; conditions: for Effect on phosphorylation of Tyr 1175 on VEGFR2: HAECs depleted of PrxII expression, FIG. 5
[3] = system: human aortic endothelial cell (HAEC); assay: VEGF-induced proliferation assay, HAEC (PrxII siRNA); type: cell-based; conditions: for Degree of HAEC proliferation: VEGF-A 25 ng/mL, percent of untreated control; for EC50: Homo sapiens, Endothelial cell, effective concentration increasing cell proliferation by 50%, VEGF-stimulated
[4] = system: human pulmonary artery endothelial cell (PAEC); assay: VEGF-induced proliferation assay, PAEC (PrxII siRNA); type: cell-based; conditions: for Degree of PAEC proliferation: VEGF-A 25 ng/mL, percent of untreated control; for EC50: Homo sapiens, Endothelial cell, effective concentration increasing cell proliferation by 50%, VEGF-stimulated
Experimental: HAECs and PAECs were transfected with a PrxII-specific siRNA using RNAi MAX transfection reagent according to manufacturer's protocol. After 24 hours, transfected cells (3,000 cells/well) were seeded in a 96-well culture plate. At 12 h after seeding, cells were serum-starved for additional 18 h in EBM basal medium containing 0.5% FBS. Test compounds were serially diluted with the same basal medium containing 0.5% FBS, added to the cells ([…]), and incubated for 2 h. After treatment, cells were placed in fresh EBM medium containing 0.5% FBS and VEGF-A (25 ng/mL) for growth factor stimulation and further cultured for 24 h.
The degree of cell proliferation was measured using the Cell Titer-GLO kit ([…]). Data are the percent of luminescence intensity averaged from three replicate wells versus that of untreated control group.
In human aortic endothelial cell (HAEC) and human pulmonary artery endothelial cell (PAEC) in which PrxII was knocked out by transfecting the PrxII siRNA, the ability of test compounds to augment the VEGF-induced proliferation of vascular endothelial cells was evaluated. In Table 7, the degree of proliferation in the compound-treated groups is expressed as percent of the degree of proliferation in untreated control group. The effective concentrations of test compounds increasing cell proliferation by 50% (EC50) is also listed.

Experimental for in vitro: Cytotoxicity tests were performed against vascular endothelial cells, vascular smooth muscle cells and hepatocytes. After treatment with ascending concentrations of each compound, the concentration of test compound corresponding to 50% cell viability (CC50) was measured.

Row | SMILES | EC50 (NIH-3T3 cells) | Effect on phosphorylation of Tyr 857 on PDGFR [1] | Concentrations at which phosphorylation of Tyr 857 on PDGFRβ is significantly reduced ([1]; HASMCs, PrxII knock-down, FIG. 1) | Effect on phosphorylation of Tyr 1175 on VEGFR2 [2] | Concentrations at which phosphorylation of Tyr 1175 on VEGFR2 is significantly reduced ([2]; HAECs, PrxII knock-down, FIG. 4) | Degree of HAEC proliferation ([3]; 2.5 nM) | Degree of HAEC proliferation ([3]; 5 nM) | Degree of HAEC proliferation ([3]; 10 nM) | Degree of HAEC proliferation ([3]; 25 nM) | Degree of HAEC proliferation ([3]; 50 nM) | Degree of HAEC proliferation ([3]; 100 nM) | EC50 [3] | Degree of PAEC proliferation ([4]; 2.5 nM) | Degree of PAEC proliferation ([4]; 5 nM) | Degree of PAEC proliferation ([4]; 10 nM) | Degree of PAEC proliferation ([4]; 25 nM) | Degree of PAEC proliferation ([4]; 50 nM) | Degree of PAEC proliferation ([4]; 100 nM) | EC50 [4] | CC50 (in vitro)
1 | CN1C(=O)C2(C)SSCC1C(=O)N2C (stereo not shown) [Compound 1, 1,6,8-trimethyl-2,3-dithia-6,8-diazabicyclo[3.2.2]nonane-7,9-dione] | 8.25 nM | strongly abolish the phosphorylation | above 2.5 nM | strongly abolish the phosphorylation | above 2.5 nM | 113.8% | 143.7% | 162.9% | 187.8% | 164.7% | 170.2% | 4.93 nM | 104.7% | 120.0% | 143.8% | 164.3% | 158.8% | 145.5% | 9.54 nM | 230000 nM
2 | CN1C(=O)C2CSSC1(C)C(=O)N2Cc1ccc2ccccc2n1 (stereo not shown) [Compound 5, 1,8-dimethyl-6-(quinolin-2-ylmethyl)-2,3-dithia-6,8-diazabicyclo[3.2.2]nonane-7,9-dione] | 7.77 nM | strongly abolish the phosphorylation |  | strongly abolish the phosphorylation |  | 112.2% | 129.7% | 165.6% | 191.6% | 172.7% | 180.1% | 5.31 nM | 106.1% | 129.7% | 152.3% | 165.6% | 167.7% | 147.4% | 5.03 nM | > 500000 nM
3 | O=C1C2CSSC3(COCCN13)C(=O)N2Cc1ccccc1 (stereo not shown) [Compound 8, 12-benzyltetrahydro-5H,10H-4,10a-(epiminomethano)[1,4]oxazino[3,4-c][1,2,4]dithia zepine-5,11-dione] | 6.57 nM |  |  |  |  | 107.3% | 147.3% | 186.3% | 204.8% | 157.0% | 161.6% | 5.04 nM | 108.5% | 124.9% | 143.4% | 164.8% | 158.1% | 144.0% | 5.12 nM | 312000 nM
4 | CCN1C(=O)C2(C)SSCC1C(=O)N2CC (stereo not shown) [Compound 20, 6,8-diethyl-1-methyl-2,3-dithia-6,8-diazabicyclo[3.2.2]nonane-7,9-dione] |  | strongly abolish the phosphorylation |  | strongly abolish the phosphorylation |  | 116.4% | 120.3% | 136.3% | 155.9% | 169.5% | 187.6% | 10.2 nM | 109.2% | 124.3% | 133.5% | 166.5% | 180.9% | 180.4% | 10.3 nM | 

Source: patent US20260008784A1 (VASTHERA CO., LTD., priority 2022, published 2026)
